Measured values reported in paper PMC11396667, “Design, Synthesis, and Anticancer and Antibacterial Activities of Quinoline-5-Sulfonamides” (Molecules, 2024).
Converted amounts (≈) assume the structure as drawn.

Legend:
S. aureus ATCC 29213 = assay: MTT assay of bacterial respiratory activity; assay type: cell-based, Staphylococcus aureus; conditions: for S. aureus Respiration Inhibition: 24 h, at the lowest multiple of MIC giving at least 70% inhibition; for Conc.: lowest multiple of MIC with at least 70% inhibition of respiratory activity / Conc.: the same concentration as multiple of MBC: S. aureus ATCC 29213
Source text: The MTT assay can be used to assess cell growth by measuring respiration. Bacterial cell respiratory activity (which is ultimately reflected in their viability) of less than 70% after exposure to the MIC values for each test compound is considered as a positive result for this test. This low level of cellular oxidative metabolism indicates inhibition of cell growth by inhibition of respiration. The lowest multiples of the MIC values by which inhibition of S. aureus ATCC 29213 viability [%] greater than 70% was achieved are shown in Table 4. […] Therefore, the antibacterial activity of the discussed compounds cannot be explained solely on the basis of respiration inhibition, so it is very difficult to draw a conclusion regarding the actual mechanism of action, since 8-HQs are multi-target agents, i.e., they affect several different targets at once (as discussed in the section dedicated to anticancer activity), which subsequently leads to the death of the treated resistant microorganisms.
Compounds were prepared as previously stated and diluted in CaMH broth for S. aureus to achieve the desired final concentrations. S. aureus bacterial suspension in sterile distilled water at 0.5 McFarland was diluted 1:3. Inocula were added to each well by multi-inoculator. Diluted mycobacteria in broth free from inhibiting compounds were used as the growth control. All compounds were prepared in duplicate. Plates were incubated at 37 °C for 24 h for S. aureus. After the incubation period, 10% well volume of MTT (3-(4,5-dimethylthiazol-2-yl)-2,5-diphenyltetrazolium bromide) reagent (Sigma) was mixed into each well and incubated at 37 °C 1 h for S. aureus. Then, 100 µL of 17% sodium dodecyl sulphate in 40% dimethylformamide was added to each well. The plates were read at 570 nm. The absorbance readings from the cells grown in the presence of the tested compounds were compared with uninhibited cell growth to determine the relative percent inhibition. The percent inhibition was determined through MTT assay. The percent viability is calculated through the comparison of a measured value and that of the uninhibited control: % viability = OD570E/OD570P × 100, where OD570E is the reading from the compound-exposed cells, while OD570P is the reading from the uninhibited cells (positive control). Cytotoxic potential is determined by a percent viability of <70% [81, 82].

[1] = tested on: MDA-MB-231 (human breast adenocarcinoma) cells; assay: WST-1 cell viability assay, MDA-MB-231; assay type: cell-based; conditions: Homo sapiens, MDA-MB-231; WST-1, 72 h exposure, ± SD, n = 6
Experimental: The synthesized compounds were tested using three cancer cell lines—human amelanotic melanoma (C-32), human breast adenocarcinoma (MDA-MB-231), and human lung adenocarcinoma (A549)—and, for comparison, normal human dermal fibroblasts (HFF-1). The WST-1 (water-soluble tetrazole salt) assay was used to evaluate the effect of the synthesized compounds on the viability of cultured cells.
Compounds were evaluated for their antiproliferative activity using three cultured cell lines: C-32 (human amelanotic melanoma, ATCC, Manassas, VA, USA), A549 (human lung adenocarcinoma, ATCC, Manassas, VA, USA), MDA-MB-231 (human breast adenocarcinoma derived from metastatic site: pleural effusion, ATCC, Manassas, VA, USA), together with HFF-1 (normal human dermal fibroblasts, ATCC, Manassas, VA, USA). The cultured cells were kept at 37 °C and 5% CO2.
Cells were seeded in 96-well plates at 5000/well in 100 μL of medium. After 24 h of incubation, the medium was replaced with a new one with the addition of the test substance. After 72 h, the following tests were performed: with crystal violet (determination of the number of adherent cells in the culture), the WST-1 test (determination of the relative number of living cells and their metabolic activity), and the LDH test (determination of the relative number of dead cells in cultures—cytotoxicity of the tested substance).
WST-1 test: The WST-1 test (Roche Diagnostics, Mannheim, Germany) allows one to determine the relative number of cells in cultures. Absorbance is directly proportional to the number of cells and their metabolic activity. The absorbance measurement is performed at λ = 450 nm (reference wave 600 nm).

[2] = tested on: methicillin-resistant S. aureus SA 3202; assay: MBC, agar aliquot subculture method, MRSA1; assay type: cell-based; conditions: Staphylococcus aureus; 99.9% decrease in CFU, 24 h, 37 °C
Source text: The activities of the individual derivatives were expressed as minimum inhibitory concentrations (MICs) and minimum bactericidal concentrations (MBCs) and are shown in Table 3 together with the values of the antibiotics used as standards for comparison. […] MBC values of bactericidal compounds are indicated in bold in Table 3.
For the above-mentioned strains/isolates, the agar aliquot subculture method was used as a test for bactericidal agents. After the MIC value determination, the inoculum was transferred to CaMH (Oxoid) for staphylococci, and BHI (Oxoid) for enterococci medium using a multipoint inoculator. The plates were incubated in a thermostat at 37 °C for 24 h. The lowest concentration of test compound at which ≤5 colonies were obtained was then evaluated as MBC, corresponding to a 99.9% decrease in CFU relative to the original inoculum.

Compound | S. aureus Respiration Inhibition (S. aureus ATCC 29213) [%] | Conc.: lowest multiple of MIC with at least 70% inhibition of respiratory activity (S. aureus ATCC 29213) | Conc.: the same concentration as multiple of MBC (S. aureus ATCC 29213) | IC50 [1] [µM] | MBC [2] [µM]
C#CCNS(=O)(=O)c1ccc(O)c2ncccc12 [3a, 8-Hydroxy-N-(prop-2-yn-1-yl)quinoline-5-sulfonamide] | 92.5 | 1× MIC (1× MBC) | 1× MIC (1× MBC) | 23.3 ± 1.2 | 122 (≈ 32 µg/mL)
C#CC(C)(C)NS(=O)(=O)c1ccc(O)c2ncccc12 [3b, 8-Hydroxy-N-(1,1-dimethylprop-2-yn-1-yl)quinoline-5-sulfonamide] | 94.4 | 2× MIC (2× MBC) | 2× MIC (2× MBC) | 55.8 ± 1.9 | 110 (≈ 31.9 µg/mL)
C#CCN(C)S(=O)(=O)c1ccc(O)c2ncccc12 [3c, 8-Hydroxy-N-methyl-N-(prop-2-yn-1-yl)quinoline-5-sulfonamide] | 95.2 | 2× MIC (2× MBC) | 2× MIC (2× MBC) | 2.2 ± 0.1 | 29 (≈ 8.01 µg/mL)
C#CCOc1ccc(NS(=O)(=O)c2ccc(O)c3ncccc23)cc1 [3d, 8-Hydroxy-N-[4-(prop-2-yn-1-yloxy)phenyl]quinoline-5-sulfonamide] | 73.0 | 1× MIC (1× MBC) | 1× MIC (1× MBC) | 45.3 ± 5.4 | 45.2 (≈ 16 µg/mL)
C#CCOc1cccc(NS(=O)(=O)c2ccc(O)c3ncccc23)c1 [3e, 8-Hydroxy-N-[3-(prop-2-yn-1-yloxy)phenyl]quinoline-5-sulfonamide] | 73.7 | 1× MIC (1× MBC) | 1× MIC (1× MBC) | 15.2 ± 0.8 | 90.4 (≈ 32 µg/mL)
C#CCOc1ccccc1NS(=O)(=O)c1ccc(O)c2ncccc12 [3f, 8-Hydroxy-N-[2-(prop-2-yn-1-yloxy)phenyl]quinoline-5-sulfonamide] | 81.6 | 1× MIC (1× MBC) | 1× MIC (1× MBC) | 14.7 ± 1.2 | 90.4 (≈ 32 µg/mL)
